Laboratory results as given in ChEMBL document CHEMBL5505975, “Design, synthesis and biological evaluation of CDC20 inhibitors for treatment of triple-negative breast cancer” (Eur J Med Chem, 2024).

Key:
MCF7 = assay: Antiproliferative activity against human MCF7 cells assessed as reduction in cell viability incubated for 96 hrs by MTT assay; conditions: MCF7, 96 h
MDA-MB-231 = assay: Antiproliferative activity against human MDA-MB-231 cells assessed as reduction in cell viability incubated for 96 hrs by MTT assay; conditions: MDA-MB-231, 96 h
A549 = assay: Antiproliferative activity against human A549 cells assessed as reduction in cell viability incubated for 96 hrs by MTT assay; conditions: A549, 96 h
MDA-MB-468 = assay: Antiproliferative activity against human MDA-MB-468 cells assessed as reduction in cell viability incubated for 96 hrs by MTT assay; conditions: MDA-MB-468, 96 h
[1] = Cytotoxicity against human L02 cells assessed as reduction in cell viability incubated for 96 hrs by MTT assay; type: toxicity, cell-based

| Structure (SMILES) | IC50 (MCF7) | IC50 (MDA-MB-231) | IC50 (A549) | IC50 (MDA-MB-468) | IC50 at 96 h [1] |
| --- | --- | --- | --- | --- | --- |
| CCC(=O)NC(Nc1nc(Nc2cc(OC)c(OC)c(OC)c2)c2cc[nH]c2n1)C(Cl)(Cl)Cl (stereo not given) | 14.7 µM | 8.81 µM | 11.6 µM | 15.9 µM | 9.01 µM |
| CCCC(=O)NC(Nc1nc(Nc2ccc(C(F)(F)F)cc2)c2cc[nH]c2n1)C(Cl)(Cl)Cl (stereo not given) | 6.58 µM | 7.32 µM | 7.32 µM | 9.62 µM | 10.2 µM |
| CCC(=O)NC(Nc1nc(Nc2ccc(OC(F)(F)F)c(F)c2)c2cc[nH]c2n1)C(Cl)(Cl)Cl (stereo not given) | 9.27 µM | 10.1 µM | 7.52 µM | > 20 µM | 7.55 µM |
| CCC(=O)NC(Nc1nc(Nc2ccc(C(F)(F)F)cc2Cl)c2cc[nH]c2n1)C(Cl)(Cl)Cl (stereo not given) | 17.7 µM | 12.7 µM | 6.92 µM | > 20 µM | 14.5 µM |
| COc1cc(Nc2nc(NC(NC(=O)C3CCCCC3)C(Cl)(Cl)Cl)nc3[nH]ccc23)cc(OC)c1OC (stereo not given) | 13.7 µM | 11.4 µM | 10.8 µM | 12.3 µM | 14 µM |
| CCC(=O)NC(Nc1nc(Nc2cc(OC)cc(OC)c2)c2cc[nH]c2n1)C(Cl)(Cl)Cl (stereo not given) | > 20 µM | > 20 µM | > 20 µM | > 20 µM | > 20 µM |
| CCC(=O)NC(Nc1nc(Nc2ccc(OC)c(Cl)c2)c2cc[nH]c2n1)C(Cl)(Cl)Cl (stereo not given) | > 20 µM | > 20 µM | > 20 µM | > 20 µM | > 20 µM |
| CCC(=O)NC(Nc1nc(Nc2ccc(C(F)(F)F)cc2F)c2cc[nH]c2n1)C(Cl)(Cl)Cl (stereo not given) | 13.6 µM | 12.6 µM | 11.2 µM | 14.1 µM | 14 µM |
| O=C(NC(Nc1nccc(Nc2ccc(C(F)(F)F)cc2)n1)C(Cl)(Cl)Cl)C1CC1 (stereo not given) | > 20 µM | > 20 µM | > 20 µM | > 20 µM | > 20 µM |
| CCC(=O)NC(Nc1nc(Nc2ccc(OC(F)(F)F)cc2)c2cc[nH]c2n1)C(Cl)(Cl)Cl (stereo not given) | 11.8 µM | 16.1 µM | 11.3 µM | 18.1 µM | 25.3 µM |
| CCC(=O)NC(Nc1nc(Nc2ccc3scnc3c2)c2cc[nH]c2n1)C(Cl)(Cl)Cl (stereo not given) | > 20 µM | > 20 µM | > 20 µM | > 20 µM | > 20 µM |
| CCC(=O)NC(Nc1nc(Nc2ccc(OC)cc2)c2cc[nH]c2n1)C(Cl)(Cl)Cl (stereo not given) | > 20 µM | > 20 µM | > 20 µM | > 20 µM | > 20 µM |
| CCCC(=O)NC(Nc1nc(Nc2cc(OC)cc(OC)c2)c2cc[nH]c2n1)C(Cl)(Cl)Cl (stereo not given) | > 20 µM | > 20 µM | > 20 µM | > 20 µM | > 20 µM |
| CCC(=O)NC(n1cnc2c(Nc3cc(OC)cc(OC)c3)nc(N)nc21)C(Cl)(Cl)Cl (stereo not given) | > 20 µM | > 20 µM | > 20 µM | > 20 µM | > 20 µM |
| CCCCC(=O)NC(Nc1nc(Nc2ccc(C(F)(F)F)cc2)c2cc[nH]c2n1)C(Cl)(Cl)Cl (stereo not given) | 7.58 µM | 7.36 µM | 7.26 µM | 13.2 µM | 8.85 µM |
| CCC(=O)NC(Nc1nc(Nc2ccc(OC)c(OC)c2)c2cc[nH]c2n1)C(Cl)(Cl)Cl (stereo not given) | > 20 µM | > 20 µM | > 20 µM | > 20 µM | > 20 µM |
| CCC(=O)NC(n1cnc2c(Nc3ccc(OC)cc3)nc(N)nc21)C(Cl)(Cl)Cl (stereo not given) | > 20 µM | > 20 µM | > 20 µM | > 20 µM | > 20 µM |

| Structure (SMILES) | IC50 (MCF7) | IC50 (MDA-MB-231) | IC50 (A549) | IC50 (MDA-MB-468) | IC50 at 96 h [1] |
| --- | --- | --- | --- | --- | --- |
| CCC(=O)NC(n1cnc2c(Nc3ccc(C(F)(F)F)cc3)nc(N)nc21)C(Cl)(Cl)Cl (stereo not given) | 10.2 µM | 9.56 µM | 10.4 µM | 11.3 µM | 12.3 µM |
| CCC(=O)NC(n1cnc2c(Nc3ccc(OC)c(Cl)c3)nc(N)nc21)C(Cl)(Cl)Cl (stereo not given) | > 20 µM | > 20 µM | > 20 µM | > 20 µM | > 20 µM |
| CCCc1ccc(Nc2nc(NC(NC(=O)CC)C(Cl)(Cl)Cl)nc3[nH]ccc23)cc1 (stereo not given) | > 20 µM | > 20 µM | > 20 µM | > 20 µM | > 20 µM |
| CCC(=O)NC(Nc1nc(Nc2ccc(C(F)(F)F)nc2)c2cc[nH]c2n1)C(Cl)(Cl)Cl (stereo not given) | > 20 µM | 19.8 µM | > 20 µM | > 20 µM | > 20 µM |
| O=C(NC(Nc1nc(Nc2ccc(C(F)(F)F)cc2)c2cc[nH]c2n1)C(Cl)(Cl)Cl)C1CCCCC1 (stereo not given) | 8.17 µM | 8.69 µM | 9.3 µM | 9.15 µM | 11.6 µM |
| CCCCC(=O)NC(Nc1nc(Nc2cc(OC)c(OC)c(OC)c2)c2cc[nH]c2n1)C(Cl)(Cl)Cl (stereo not given) | 19.4 µM | 10.5 µM | 14.3 µM | > 20 µM | > 20 µM |
| CCCCCC(=O)NC(Nc1nc(Nc2cc(OC)c(OC)c(OC)c2)c2cc[nH]c2n1)C(Cl)(Cl)Cl (stereo not given) | 16.7 µM | 8.25 µM | 10.8 µM | 15.2 µM | 12.3 µM |
| CCCCCC(=O)NC(Nc1nc(Nc2cc(OC)cc(OC)c2)c2cc[nH]c2n1)C(Cl)(Cl)Cl (stereo not given) | > 20 µM | > 20 µM | > 20 µM | > 20 µM | > 20 µM |
| COc1cc(Nc2nc(NC(NC(=O)C3CCCCC3)C(Cl)(Cl)Cl)nc3[nH]ccc23)cc(OC)c1 (stereo not given) | > 20 µM | > 20 µM | > 20 µM | > 20 µM | > 20 µM |
| O=C(NC(Nc1nc(Nc2ccc(C(F)(F)F)cc2)c2cc[nH]c2n1)C(Cl)(Cl)Cl)C1CC1 (stereo not given) | 6.71 µM | 5.97 µM | 6.66 µM | 10.2 µM | 16.1 µM |
| CCCC(=O)NC(Nc1nc(Nc2cc(OC)c(OC)c(OC)c2)c2cc[nH]c2n1)C(Cl)(Cl)Cl (stereo not given) | 19.6 µM | 9.91 µM | > 20 µM | 17.2 µM | 14.4 µM |
| CCC(=O)NC(Nc1nc(Nc2cc(F)c(OC)c(F)c2)c2cc[nH]c2n1)C(Cl)(Cl)Cl (stereo not given) | 7.2 µM | 8.07 µM | 8.79 µM | 10.4 µM | 14.5 µM |
| CCCCCC(=O)NC(Nc1nc(Nc2ccc(C(F)(F)F)cc2)c2cc[nH]c2n1)C(Cl)(Cl)Cl (stereo not given) | 6.97 µM | 6.15 µM | 8.36 µM | 12 µM | 14.4 µM |
| CCC(=O)NC(Nc1nc(Nc2ccc(C(F)(F)F)cc2)c2cc[nH]c2n1)C(Cl)(Cl)Cl (stereo not given) | 6.21 µM | 7.79 µM | 7.98 µM | 10.1 µM | 12.8 µM |
| CCCCC(=O)NC(Nc1nc(Nc2cc(OC)cc(OC)c2)c2cc[nH]c2n1)C(Cl)(Cl)Cl (stereo not given) | > 20 µM | > 20 µM | > 20 µM | > 20 µM | > 20 µM |
| CCC(=O)NC(n1cnc2c(Nc3ccc4c(c3)OCO4)nc(N)nc21)C(Cl)(Cl)Cl (stereo not given) | > 20 µM | > 20 µM | > 20 µM | > 20 µM | > 20 µM |
